# Assay results published in patent publication US11629192B2, “Methods and pharmaceutical compositions for the treatment of diseases mediated by the NRP-1/OBR complex signaling pathway” (INSERM (Institut National de la Sante et de la Recherche …, priority 2014, dated 2023).
# Entries after “also recorded” stand apart in the source; their conditions may differ.
# B1: mOB: murine leptin (protein, UniProt P41160 22-167, looked up)
# Leptin: VPIQKVQDDTKTLIKTIVTRINDISHTQSVSAKQRVTGLDFIPGLHPILSLSKMDQTLAVYQQVLTSLPSQNVLQIANDLENLRDLLHLLAFSKSCSLPQTSGLQKPESLDGVLEASLYSTEVVALSRLQGSLQDILQQLDVSPEC
# Legend:
# [1] = test system: NRP-1/OBR complex; test: NRP-1/OBR complex detection by Duolink Proximity Ligation Assay in MDA-MB-231 cells; format: cell-based, human; conditions: for formation and nuclear translocation of the NRP-1/OBR complex: MDA-MB-231 stimulated with Leptin (10 nM), CK2 inhibitor treatment
# Excerpt: FIG. 2A-E. NRP-1/OBR complex is dependent of the activity of Protein-kinase CK2: NRP-1 and OBR are both a substrate of the holoenzyme CK2: In vitro phosphorylation of the recombinant full length NRP-1 (A) and the length OBR (B) indicate that the CK2β subunit is indispensable for the CK2 activity. C. Detection of the NRP-1 and CK2β subunit interaction: By using the PLA technology, the in vitro data showing the implication of CK2β subunit in the phosphorylation of NRP-1 by CK2 are in part confirmed in MDA-MB231 cells by the detection of CK2β interaction with NRP-1 as indicated by the duolink (white dot). […] E. inhibition of the NRP-1/OBR by the simultaneous CK2α and CK2α′ expression silencing using siRNA that confirms the CK2 implication In the NRP-1/OBR complex formation and nuclear localization.
# To confirm a direct association of NRP-1 and Leptin in breast cancer cell migration, we investigated the NRP-1 and OBR interaction by using proximity ligation assay technology (Duolink) in MDA-MB-231 and in T47D-NRP-1. Since OBR is a member of the class I cytokine receptor family, we asked the question if the formation of the complex NRP-1/OBR can or not be modulated by Leptin. This question was investigated endogenously in MDA-MB-231 or by transient transfection of T47D either by NRP-1 or by NRP-1/OBR or OBR alone. After 24 h of transfection, cells were serum starved for 16 h then stimulated with Leptin (10 nM). After 3 h, the stimulation was stopped by removing the medium, cells was first washed then fixed and NRP-1/OBR complex formation was analyzed by Duolink in situ Proximity Ligation Assay (PLA) and by confocal microscopy detection. Co-localization was analyzed using JACoP (ImageJ; National Institutes of Health, Bethesda, Md.) software. Co-localization between molecules was indicated by a positive Pearson coefficient (r). First, the expression of NRP-1 in transfected T47D was confirmed by RT-PCR. NRP-1 forms a complex with endogenous OBR as it is shown by the Duolink detection as red dot in cells transfected with pcDNA3-NRP-1. The Duolink signal increased in the T47D co-transfected with NRP-1 and OBR. The Duolink signals in T47D transfected with either the empty vector pcDNA3 or with the OBR expressing vector were similar. The same results are observed in MDA-MB-231. […] By using subcellular protein fractionation kit, NRP-1 and OBR localization in cytoplasmic (C), membrane (M), in the total nuclear extract (N) or in soluble nuclear (SN) and chromatin bound fractions (CB) was analyzed by western blotting either in total lysate or after coimmunoprecipitation. The purity of fraction was assessed by the detection of specific proteins of each fraction such as Hsp90 for the C fraction, SP1 and HDAC2 for the SN and CB fractions and specifically the Calreticulin for endoplasmic reticulum (ER) in order to detect any contamination by the ER membrane fraction in the nuclear fractions. As suspected, OBR was coimmunoprecipitated with NRP-1 in the cytoplasmic (C) and in the nuclear fraction (N) of MDA-MB-231 but not in T47D. As well as Phosphorylated OBR (P-OBR), NRP-1 was detected in cytoplasmic fraction and in nuclear fractions SN and CB of 16 h serum starved MDA-MB-231 and stimulated with 10 nM of Leptin during 3 h at 37° C. The P-OBR and NRP-1 coimmunoprecipitated in the nuclear fractions, increasing with Leptin stimulation as observed by confocal microscopy.
# As attempted, NRP-1/OBR complex was detected by confocal microscopy after by Duolink in situ Proximity Ligation Assay (PLA) in MDA-MB-231 stimulated with Leptin (10 nM). This detection was also observed in MDA-MB-231-shGFP but very less in MDA-MB-231-shNRP-1 confirming NRP-1 association with OBR.
# [2] = test system: P-NRP-1; test: NRP-1 (P-NRP-1) and OBR phosphorylation in MDA-MB-231, immunostaining / coimmunoprecipitation; format: cell-based, human; conditions: for NRP-1 and OBR phosphorylation: inhibition of CK2 by chemical compounds
# Excerpt: Beside the modulation of the NRP-1/OBR complex formation by Leptin and OBR phosphorylation, we postulated a possible phosphorylation of NRP-1 that can regulate the translocation of the complex to the nucleus. Two putative phosphorylation sites of NRP-1 have been reported with no more investigation. The first one at the extracellular B domain as reported by Shintani et al in 2009 with no antibody available and the second one at the Threonine 916 located in the cytoplasmic domain as it was reported by Kyle et al in 2011. Since a specific antibody against P-NRP-1 at the T916 was available, we investigated by coimmunoprecipitation the detection of P-NRP-1 in MDA-MB-231 after serum starvation and stimulation by Leptin (10 nM). […] To confirm this phosphorylation state, we investigated the possible implication of a Serine/threonine Kinase CK2 using one of its first chemical inhibitor (DRB). In serum starved condition, P-NRP-1 was detected as polarized spot in the cytoplasm and the nucleus of MDA-MB-231. […] The inhibition was specific since, in stimulated condition combined with DMSO at the same dilution of DRB, we were able to observe a diffuse nuclear P-NRP-1 staining.
# [3] = test system: NRP-1/OBR complex; test: NRP-1/OBR complex by PLA in skin fibroblast of healthy donor and anorexic patient; format: cell-based, human; conditions: for NRP-1/OBR complex formation: skin fibroblasts of healthy donor and anorexic patient, treated during 4 hours
# Experimental: FIG. 3A-B. NRP1/OBR complex formation inhibited by two alosteric inhibitors of Protein-kinase CK2 in skin fibroblast of healthy donor (A) and anorexic patient (B). The NRP-1/OBR complex (Red dot) is detected by de Proximity Ligation assay technology (PLA or Ouolink). Cells were grown in DMEM plus 20% of fetal bovine serum+Sodium pyruvate+LGiutamate and penicillin and streptomycin. Cells were treated or not with D3.1 or M4 CK2 inhibitor during 4 hours. Cells were washed with PBS1X and fixed with iced acetone and rehydrated with PBS before blockage and staining with a Goat ant-Human leptin and Rabbit anti-Neuropilin-1 and Mouse anti-Leptin receptor OBR. Leptin was detected using a donkey and Goat Alexa 488 (Green) and NRP-1 and OBR with anti-Rabbit-PLA minus and antimouse-PLA plus as described in the link indicated above. The NRP-1/OBR complex is inhibited by D3.1 and M4 treatment.
# [4] = test system: OBR and STAT3 phosphorylation; test: OBR and STAT3 phosphorylation in cytoplasmic and nuclear fractions; format: cell-based
# Excerpt: Since both NRP-1/OBR complex formation and NRP-1 phosphorylation were abolished by CK2 inhibition, we supposed that OBR signaling pathway could be also affected by CK2 inhibition.
# [5] = test system: MDA-MB-231 cells; test: MDA-MB-231 cell migration / transmigration through insert; format: cell-based, human; conditions: 10 μg/ml of Bevacizumab
# Excerpt: (§1) FIG. 5. NRP-1, OBR and leptin interactions confirmation using a Bio-Layer Interferometry (BLI) technology (fortebio.com/bli-technology.html): A-Leptin (OB) interaction to OBR is used as a positive control. Human neuropilin-1 (hNRP-1) interact with human OBR with a high affinity and specifically with human leptin (hOB) but not with murine leptin (mOB). VEGF165 binding to hNRP-1 is used as a positive control. B-Leptin and Avastin association increases MDA-MB231 cells transmigration through […] pore Insert. Avastin treatment may prevent a negative feedback control by VEGF of the pro-angiogenic signaling pathway of Leptin. VEGF binds to OBR which confirms our hypothesis that should be more investigated.
# First MBA-MB-231 and T47D breast cancer cells line were selected for their high and undetectable NRP-1 expression respectively and the expression of Leptin receptor (OBR). In order to investigate NRP-1 and Leptin association in breast cancer cell line migration, we proceeded to NRP-1 expression silencing in MDA-MB-231 using either siRNA or shRNA approaches or NRP-1 overexpression in T47D. […] In contrast Leptin induced MDA-MB-231 migration that was decreased in siNRP-1 conditions. The in vitro data were confirmed in vivo by MDA-MB-231 and T47D xenografts in Nude mice. Modulation of NRP-1 expression either by shRNA silencing in MDA-MB-231 or by overexpression in T47D induced an increase of proliferation and a decrease of lymph node infiltration by MDA-MB-231-shNRP-1 and a decrease of proliferation and an increase of lymph node infiltration by T47D-NRP-1-RFP in mice treated with Leptin.
# Leptin induced in vitro MDA-MB-231 migration that was decreased by NRP-1 repression using siRNA. Lel Xu et al have reported a direct evidence of NRP-1 up-regulation in tumors treated by anti-VEGF (Bevacizumab). […] This observation can be a first explanation of breast cancer therapy failure (increase of Progression survival while decreasing overall survival) by Bevacizumad and that was revoked by the FDA (Food and Drugs Administration, US).
# [6] = target: Human neuropilin-1 (hNRP-1) (Homo sapiens, UniProt O14786); test: Bio-Layer Interferometry (BLI) interaction with hNRP-1; format: binding
# Excerpt: as §1
molecule,measurement,setting,value
CCC(=C/[C@H](C)C/C=C/C(C)=C/[C@@H](C)C(=O)[C@@H](C)[C@H](O)[C@@H](C)C/C(C)=C/C(=O)O)/C=C/[C@@H]1OC(=O)C=C[C@@H]1C [leptomycin B],NRP-1/OBR complex detection by Duolink in the nucleus,[1]; MDA-MB-231 co-treated with Leptin and leptomycin B vs Leptin alone,increased
O=C(O)c1ccc2c(c1)nc(Nc1cccc(Cl)c1)c1ccncc12 [CX4945],NRP-1 and OBR phosphorylation,[2],prevented
same,NRP-1/OBR complex detection by PLA and its nuclear localization,"[1]; MDA-MB231, CX4945 (504) during 4 h, leptin stimulation (10 nM)",decrease in NRP-1/OBR complex detection by PLA (red dot) and its nuclear localization
same,formation and nuclear translocation of the NRP-1/OBR complex,[1],prevented; also recorded: the same results obtained with TBB and DRB inhibitors
"O=[N+]([O-])c1ccc2c(/N=N/c3c(O)ccc4ccccc34)c(O)cc(S(=O)(=O)O)c2c1 [M4, reference compound]",NRP-1/OBR complex formation,[3],inhibited
"Brc1c(Br)c(Br)c2[nH]nnc2c1Br [TBB, 4,5,6,7-tetrabromobenzotriazole]","Leptin induced OBR and STAT3 phosphorylation increase, effect of inhibitor",[4],inhibited by TBB treatment in a dose dependent manner
same,NRP-1 and OBR phosphorylation,[2],prevented
same,formation and nuclear translocation of the NRP-1/OBR complex,[1],prevented; also recorded: decrease of NRP-1/OBR complex formation
O=C(O)c1cccc(Nc2nc(-c3cccc([N+](=O)[O-])c3)cs2)c1 [D3.1],NRP-1/OBR complex formation,[3],inhibited
same,"efficiency of NRP-1/OBR complex inhibition, D3.1 compared with M4","[3]; skin fibroblasts, 4 hours",seems more efficient
"OC[C@H]1O[C@@H](n2cnc3cc(Cl)c(Cl)cc32)[C@H](O)[C@@H]1O [DRB, 5,6-dichloro-1-P-D-ribofuranosylbenzimidazole]",P-NRP-1 staining (diffuse nuclear staining and polarized spot),"[2]; Leptin-stimulated (10 nM) MDA-MB-231, DRB treatment (5004)",inhibition of the diffuse nuclear P-NRP-1 staining but also to the decrease of P-NRP-1 polarized spot
same,NRP-1 and OBR phosphorylation,[2],prevented
same,formation and nuclear translocation of the NRP-1/OBR complex,[1],prevented
same,formation and nuclear translocation of the NRP-1/OBR complex,[1]; listed as DBB,decrease of NRP-1/OBR complex formation
"Bevacizumab: anti-VEGF antibody (rhuMab VEGF, Avastin) [reference compound]",MDA-MB-231 migration,[5],induced
B1,interaction with hNRP-1,[6],not
